Test results taken from patent publication US11214536B2, “Polymorphs and uses thereof” (Inspirna, Inc., priority 2017, dated 2022).

Assay: Dynamic Vapor Sorption (DVS), hygroscopicity, with XRPD of the post-DVS solid
Assay type: physicochemical
Details: for mass uptake at 90% RH by DVS analysis: 25° C., DVS sorption/desorption cycles; for hygroscopic nature by DVS analysis: assessed from mass uptake at 90% RH; for solid form of the post-DVS sample (XRPD): XRPD analysis on solid retained after DVS
Method: Approximately, 10-20 mg of sample was placed into a mesh vapor sorption balance pan and loaded into a DVS Advantage dynamic vapor sorption balance by Surface Measurement Systems. The sample was subjected to a ramping profile from 40-90% relative humidity (RH) at 10% increments, maintaining the sample at each step until a stable weight had been achieved (dm/dt 0.004%, minimum step length 30 minutes, maximum step length 500 minutes) at 25° C. After completion of the sorption cycle, the sample was dried using the same procedure to 0% RH and then a second sorption cycle back to 40% RH. Two cycles were performed. The weight change during the sorption/desorption cycles were plotted, allowing for the hygroscopic nature of the sample to be determined. XRPD analysis was then carried out on any solid retained.

mass uptake at 90% RH by DVS analysis | hygroscopic nature by DVS analysis | solid form of the post-DVS sample (XRPD) | mass uptake at 90% RH by DVS analysis (listed as amorphous compound) | SMILES
about 1.16% | slightly hygroscopic | no change in the solid form | – | CC(CCOc1cccc(CC(=O)O)c1)N(Cc1cccc(C(F)(F)F)c1Cl)CC(c1ccccc1)c1ccccc1 (stereo not shown) [Form 4]
about 6.17% | highly hygroscopic | remained amorphous | about 6.17% | CC(CCOc1cccc(CC(=O)O)c1)N(Cc1cccc(C(F)(F)F)c1Cl)CC(c1ccccc1)c1ccccc1 (stereo not shown) [amorphous material]
about 2.3% | slightly hygroscopic | no significant change in the solid form | – | CC(CCOc1cccc(CC(=O)O)c1)N(Cc1cccc(C(F)(F)F)c1Cl)CC(c1ccccc1)c1ccccc1 (stereo not shown) [Form 6]
about 2.7% | slightly hygroscopic | partially amorphous Form 5 material | – | CC(CCOc1cccc(CC(=O)O)c1)N(Cc1cccc(C(F)(F)F)c1Cl)CC(c1ccccc1)c1ccccc1 (stereo not shown) [Form 5]
